# Assay: xn = mol fraction of the nth substance listed
# Conditions: 101 kPa, x1 = 0.8
Structure (SMILES),electrical conductivity (338.15 K) [S/m],viscosity (338.15 K) [mPa·s],electrical conductivity (358.15 K) [S/m],viscosity (358.15 K) [mPa·s],electrical conductivity (368.15 K) [S/m],viscosity (368.15 K) [mPa·s],electrical conductivity (328.15 K) [S/m],viscosity (328.15 K) [mPa·s],electrical conductivity (348.15 K) [S/m],viscosity (348.15 K) [mPa·s]
C1CCC2=NCCCN2CC1 + O=S(=O)([N-]S(=O)(=O)C(F)(F)F)C(F)(F)F.[Li+],0.0047,977,0.0256,160.9,0.0438,82.4,–,–,–,–
C1CN=C2CCCN2C1 + O=S(=O)([N-]S(=O)(=O)C(F)(F)F)C(F)(F)F.[Li+],–,–,0.0966,63.5,–,–,0.0252,566,0.0633,116.3

# From a compilation of properties of binary mixtures (doi:10.1016/j.molliq.2020.113163)
